Drawing on ChEMBL document CHEMBL3608278 (J Med Chem, 2015), this text covers half-life and IC50 for three compounds.

Molecules are shown by their SMILES. Bridge positions count the residues as written; N and C are the ends. Square brackets hold non-standard residues; d marks the D form. Peptide text beside a SMILES is read from it. 1Nal = N[C@@H](Cc1cccc2ccccc12)C(=O)O

Data set [1] in a line: Half life in rat. The format is ADME, organism-based. The following applies: in vivo.
Data set [2] concerns the target T1, Potassium voltage-gated channel subfamily A member 3 (Homo sapiens, UniProt P22001). The format is cell-based, CHO-K1.
The target of data set [3] is T1, Potassium voltage-gated channel subfamily A member 3. Put plainly: cell-based. Set-up: species or system Blood.
The target is the same in data set [4]. Details: species or system Blood.

T1 sequence (P22001 whole entry): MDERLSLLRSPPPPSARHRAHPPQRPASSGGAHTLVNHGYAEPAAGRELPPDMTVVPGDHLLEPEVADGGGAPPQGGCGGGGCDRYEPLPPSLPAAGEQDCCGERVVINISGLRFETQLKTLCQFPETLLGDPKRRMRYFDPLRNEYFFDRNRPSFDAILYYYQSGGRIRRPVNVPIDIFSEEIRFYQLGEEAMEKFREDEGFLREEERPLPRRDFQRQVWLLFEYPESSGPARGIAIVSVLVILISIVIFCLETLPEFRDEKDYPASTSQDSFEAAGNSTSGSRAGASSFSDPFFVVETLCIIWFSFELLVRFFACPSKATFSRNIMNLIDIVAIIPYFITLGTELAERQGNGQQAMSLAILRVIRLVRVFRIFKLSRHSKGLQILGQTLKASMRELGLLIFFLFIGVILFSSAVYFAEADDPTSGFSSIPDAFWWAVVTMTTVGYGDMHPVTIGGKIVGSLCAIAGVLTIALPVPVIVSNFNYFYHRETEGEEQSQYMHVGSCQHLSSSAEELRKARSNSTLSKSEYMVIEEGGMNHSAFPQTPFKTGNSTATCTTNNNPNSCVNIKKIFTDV

For the compound `CC[C@H](C)[C@@H]1NC(=O)[C@@H](NC(=O)[C@H](CO)NC(=O)[C@@H](N)CCCNC(=N)N)CSSC[C@@H](C(=O)O)NC(=O)[C@H]([C@@H](C)O)NC(=O)CNC(=O)[C@@H]2CSSC[C@@H]3NC(=O)[C@H](CCC(N)=O)NC(=O)[C@H](Cc4ccccc4)NC(=O)[C@H](C)NC(=O)[C@H]([C@@H](C)O)NC(=O)[C@H](CSSC[C@H](NC(=O)[C@H](Cc4ccccc4)NC(=O)[C@H](CO)NC(=O)[C@H](CC(C)C)NC(=O)[C@H](CCCNC(=N)N)NC(=O)[C@H](Cc4ccc(O)cc4)NC(=O)[C@H](CCCCN)NC(=O)[C@H](CCSC)NC(=O)[C@H](CO)NC(=O)[C@H](Cc4cnc[nH]4)NC(=O)[C@H](CCCCN)NC3=O)C(=O)N[C@@H](CCCNC(=N)N)C(=O)N[C@@H](CCCCN)C(=O)N[C@@H]([C@@H](C)O)C(=O)N2)NC(=O)[C@H](CCCNC(=N)N)NC(=O)[C@H](CO)NC(=O)[C@H](CCCCN)NC(=O)[C@@H]2CCCN2C(=O)[C@H]([C@@H](C)CC)NC(=O)[C@H]([C@@H](C)O)NC(=O)[C@H](CC(=O)O)NC1=O`, the half-life (commonly the time in which the quantity being followed falls by half) in data set [1] was 20 min.
Turning to `CC[C@H](C)[C@@H]1NC(=O)[C@@H](NC(=O)[C@H](CO)NC(=O)[C@@H](N)CCCNC(=N)N)CSSC[C@@H](C(=O)O)NC(=O)[C@H]([C@@H](C)O)NC(=O)CNC(=O)[C@@H]2CSSC[C@@H]3NC(=O)[C@H](CCC(N)=O)NC(=O)[C@H](Cc4ccccc4)NC(=O)[C@H](CCCCN)NC(=O)[C@H]([C@@H](C)O)NC(=O)[C@H](CSSC[C@H](NC(=O)[C@H](Cc4ccccc4)NC(=O)[C@H](CO)NC(=O)[C@H](CC(C)C)NC(=O)[C@H](CCCNC(=N)N)NC(=O)[C@H](Cc4ccc(O)cc4)NC(=O)[C@H](CCCCN)NC(=O)[C@H](CCSC)NC(=O)[C@H](CO)NC(=O)[C@H](Cc4cnc[nH]4)NC(=O)[C@H](CCCCN)NC3=O)C(=O)N[C@@H](CCCNC(=N)N)C(=O)N[C@@H](CCCCN)C(=O)N[C@@H]([C@@H](C)O)C(=O)N2)NC(=O)[C@H](CCCNC(=N)N)NC(=O)[C@H](CO)NC(=O)[C@H](CCCCN)NC(=O)[C@@H]2CCCN2C(=O)[C@H]([C@@H](C)CC)NC(=O)[C@H]([C@@H](C)O)NC(=O)[C@H](Cc2cccc3ccccc23)NC1=O` (H-RSCI[1Nal]TIPKSRCTKFQCKHSMKYRLSFCRKTCGTC-OH; disulfide 3-35, 12-28, 17-32), the IC50 (usually the concentration that gives 50% inhibition) in data set [2] worked out at 0.073 nM; in data set [3], 0.075 nM; in data set [4] it was 0.201 nM.
The matching figures for `CC[C@H](C)[C@@H]1NC(=O)[C@@H](NC(=O)[C@H](CO)NC(=O)[C@@H](N)CCCNC(=N)N)CSSC[C@@H](C(=O)O)NC(=O)[C@H]([C@@H](C)O)NC(=O)CNC(=O)[C@@H]2CSSC[C@@H]3NC(=O)[C@H](CCC(N)=O)NC(=O)[C@H](Cc4ccccc4)NC(=O)[C@H](Cc4cccc5ccccc45)NC(=O)[C@H]([C@@H](C)O)NC(=O)[C@H](CSSC[C@H](NC(=O)[C@H](Cc4ccccc4)NC(=O)[C@H](CO)NC(=O)[C@H](CC(C)C)NC(=O)[C@H](CCCNC(=N)N)NC(=O)[C@H](Cc4ccc(O)cc4)NC(=O)[C@H](CCCCN)NC(=O)[C@H](CCSC)NC(=O)[C@H](CO)NC(=O)[C@H](Cc4cnc[nH]4)NC(=O)[C@H](CCCCN)NC3=O)C(=O)N[C@@H](CCCNC(=N)N)C(=O)N[C@@H](CCCCN)C(=O)N[C@@H]([C@@H](C)O)C(=O)N2)NC(=O)[C@H](CCCNC(=N)N)NC(=O)[C@H](CO)NC(=O)[C@H](CCCCN)NC(=O)[C@@H]2CCCN2C(=O)[C@H]([C@@H](C)CC)NC(=O)[C@H]([C@@H](C)O)NC(=O)[C@H](Cc2cccc3ccccc23)NC1=O` (H-RSCI[1Nal]TIPKSRCT[1Nal]FQCKHSMKYRLSFCRKTCGTC-OH; disulfide 3-35, 12-28, 17-32): 0.039 nM, 0.089 nM and 0.11 nM.
